Measured values as given in patent US20130121994A1, “TRIAZOLOPYRIDINE DERIVATIVES” (BAYER INTELLECTUAL PROPERTY GMBH, priority 2009, published 2013).

These molecules were tested against T1, human kinase Mps-1 (Homo sapiens, UniProt P33981) (assay: Mps-1 kinase assay (HTRF)).
T1 construct: N-terminally GST-tagged human full length recombinant Mps-1 kinase; GST (N); purchased Invitrogen, Karslruhe, Germany PV4071
T1 sequence (P33981 1-857): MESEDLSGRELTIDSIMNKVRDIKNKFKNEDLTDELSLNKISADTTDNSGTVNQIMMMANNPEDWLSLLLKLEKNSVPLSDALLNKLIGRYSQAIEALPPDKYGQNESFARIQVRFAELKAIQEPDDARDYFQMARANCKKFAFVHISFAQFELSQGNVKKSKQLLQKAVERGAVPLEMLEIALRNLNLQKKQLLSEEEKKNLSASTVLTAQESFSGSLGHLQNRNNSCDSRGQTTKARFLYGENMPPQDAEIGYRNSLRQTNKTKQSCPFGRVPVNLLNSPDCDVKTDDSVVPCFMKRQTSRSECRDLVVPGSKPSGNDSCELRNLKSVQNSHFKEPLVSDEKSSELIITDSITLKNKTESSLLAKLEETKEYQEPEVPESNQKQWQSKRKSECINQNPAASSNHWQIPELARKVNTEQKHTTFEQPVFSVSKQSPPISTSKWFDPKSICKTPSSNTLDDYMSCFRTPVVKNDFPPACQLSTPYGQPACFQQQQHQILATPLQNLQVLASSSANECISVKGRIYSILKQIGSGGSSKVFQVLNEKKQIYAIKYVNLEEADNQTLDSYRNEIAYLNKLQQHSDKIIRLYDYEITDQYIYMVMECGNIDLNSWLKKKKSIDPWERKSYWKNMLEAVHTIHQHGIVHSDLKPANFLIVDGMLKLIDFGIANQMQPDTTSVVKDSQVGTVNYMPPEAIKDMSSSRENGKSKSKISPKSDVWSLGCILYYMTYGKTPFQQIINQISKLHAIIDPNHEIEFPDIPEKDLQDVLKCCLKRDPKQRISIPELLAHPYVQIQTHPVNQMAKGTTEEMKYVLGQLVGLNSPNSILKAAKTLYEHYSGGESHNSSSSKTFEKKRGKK
Assay type: biochemical
For `COc1cc(C(=O)NCC(F)(F)F)ccc1Nc1nc2ccc(-c3cccc(C(=O)NCC(C)(C)C)c3)cn2n1` [Example 11.084, 4-[(6-{3-[(2,2-dimethylpropyl)carbamoyl]phenyl}[1,2,4]tria-zolo[1,5-a]pyridin-2-yl)amino]-3-methoxy-N-(2,2,2-trifluoroethyl)benzamide], the IC50 was 1.07 nM.
Work on `CCOc1cc(C(=O)NCC(C)(C)O)ccc1Nc1nc2ccc(-c3ccc(C(=O)NCCC(F)(F)F)cc3)cn2n1` [Example 11.034, 3-ethoxy-N-(2-hydroxy-2-methylpropyl)-4-[(6-{4-[(3,3,3-trifluoropropyl)carbamoyl]phenyl}[1,2,4]tria-zolo[1,5-a]pyridin-2-yl)amino]benzamide] yielded an IC50 of 1.38 nM.
With `N#Cc1ccccc1Nc1nc2ccc(-c3cccc(C(=O)NCC(F)F)c3F)cn2n1` [Example 11.069, 3-{2-[(2-cyanophenyl)amino][1,2,4]triazolo[1,5-a]pyridin-6-yl}-N-(2,2-difluoroethyl)-2-fluorobenzamide] the IC50 was 34.2 nM.
With `COc1cc(C(=O)NCCS(C)(=O)=O)ccc1Nc1nc2ccc(-c3cccc(C(=O)NCC(C)(C)C)c3)cn2n1` [Example 11.078, 4-[(6-{3-[(2,2-dimethylpropyl)carbamoyl]phenyl}[1,2,4]tria-zolo[1,5-a]pyridin-2-yl)amino]-3-methoxy-N-[2-(methylsulfonyl)ethyl]benzamide] the IC50 was ≤ 1 nM.
With `CCN(CC)C(=O)c1ccc(Nc2nc3ccc(-c4ccc(C(=O)NCC(C)(C)C)cc4)cn3n2)c(OC)c1` [Example 11.027, 4-[(6-{4-[(2,2-dimethylpropyl)carbamoyl]phenyl}[1,2,4]tria-zolo[1,5-a]pyridin-2-yl)amino]-N,N-diethyl-3-methoxybenzamide] the IC50 was 35.8 nM.
`COc1ccccc1Nc1nc2ccc(-c3cccc(NC(=O)NC(C)C)c3)cn2n1` [Example 8.4, 1-(3-{2-[(2-methoxyphenyl)amino][1,2,4]triazolo[1,5-a]pyridin-6-yl}phenyl)-3-propan-2-ylurea] gave an IC50 of 92 nM.
For `CNC(=O)c1ccc(-c2ccc3nc(Nc4ccccc4C#N)nn3c2)cc1` [Example 3.10, 4-{2-[(2-cyanophenyl)amino] [1,2,4]triazolo[1,5-a]pyridin-6-yl}-N-methylbenzamide], the IC50 was 24 nM.
`CC(=O)Nc1ccc(-c2ccc3nc(Nc4ccccc4C#N)nn3c2)cc1` [Example 4.3, N-(4-{2-[(2-cyanophenyl)amino][1,2,4]triazolo[1,5-a]pyridin-6-yl}phenyl)acetamide] showed an IC50 of 28 nM.
In the case of `CC(C)(C)CNC(=O)c1cccc(-c2ccc3nc(Nc4ccc(C(=O)NCC(C)(C)O)cc4OCC(F)(F)F)nn3c2)c1` [Example 11.095, 4-[(6-{3-[(2,2-dimethylpropyl)carbamoyl]phenyl}[1,2,4]tria-zolo[1,5-a]pyridin-2-yl)amino]-N-(2-hydroxy-2-methylpropyl)-3-(2,2,2-trifluoroethoxy)benzamide], the IC50 is reported as ≤ 1 nM.
In the case of `COc1cc(C(=O)NC(C)(C)CO)ccc1Nc1nc2ccc(-c3ccc(C(=O)NCC(F)(F)F)cc3)cn2n1` [Example 11.017, N-(1-hydroxy-2-methylpropan-2-yl)-3-methoxy-4-[(6-{4-[(2,2,2-trifluoroethyl)carbamoyl]phenyl}[1,2,4]triazolo [1,5-a]pyridin-2-yl)amino]benzamide], the IC50 is reported as 1.73 nM.
Work on `N#Cc1ccccc1Nc1nc2ccc(-c3cc(F)cc(C(=O)O)c3)cn2n1` [Example 11.074, 3-{2-[(2-cyanophenyl)amino][1,2,4]triazolo[1,5-a]pyridin-6-yl}-5-fluorobenzoic acid] yielded an IC50 of 170 nM.
In the case of `COc1ccc(Nc2nc3ccc(-c4cc(C)c(O)c(C)c4)cn3n2)c(OC)c1` [Example 1.2, 4-{2-[(2,4-dimethoxyphenyl)amino] [1,2,4]triazolo[1,5-a]pyridin-6-yl}-2,6-dimethylphenol], the IC50 is reported as 180 nM.
For `CC(C)(C)CNC(=O)c1cccc(-c2ccc3nc(Nc4ccc(C(=O)NC(C)(C)CO)cc4OCC(F)(F)F)nn3c2)c1` [Example 11.092, 4-[(6-{3-[(2,2-dimethylpropyl)carbamoyl]phenyl}[1,2,4]tria-zolo[1,5-a]pyridin-2-yl)amino]-N-(1-hydroxy-2-methylpropan-2-yl)-3-(2,2,2-trifluoroethoxy)benzamide], the IC50 was ≤ 1 nM.
With `CC(=O)Nc1cccc(-c2ccc3nc(Nc4ccc(OC(F)(F)F)cc4)nn3c2)c1` [Example 2.7, N-[3-(2-{[4-(trifluoromethoxy)phenyl]amino}[1,2,4]tri-azolo[1,5-a]pyridin-6-yl)phenyl]acetamide] the IC50 was 3300 nM.
Work on `CC(C)(O)CNC(=O)c1cccc(-c2ccc3nc(Nc4ccccc4C#N)nn3c2)c1` [Example 11.062, 3-{2-[(2-cyanophenyl)amino][1,2,4]triazolo[1,5-a]pyridin-6-yl}-N-(2-hydroxy-2-methylpropyl)benzamide] yielded an IC50 of 13.9 nM.
With `Cc1cc(-c2ccc3nc(Nc4cncnc4)nn3c2)cc(C)c1O` [Example 1.4, 2,6-dimethyl-4-[2-(pyrimidin-5-ylamino)[1,2,4]triazolo [1,5-a]pyridin-6-yl]phenol] the IC50 was 2700 nM.
With `CC(F)(F)CNC(=O)c1cccc(-c2ccc3nc(Nc4ccccc4C#N)nn3c2)c1F` [Example 11.066, 3-{2-[(2-cyanophenyl)amino][1,2,4]triazolo[1,5-a]pyridin-6-yl}-N-(2,2-difluoropropyl)-2-fluorobenzamide] the IC50 was 26.7 nM.
For `CCOc1cc(C(=O)NCC(C)(C)O)ccc1Nc1nc2ccc(-c3ccc(C(=O)NCC(F)(F)F)cc3)cn2n1` [Example 11.032, 3-ethoxy-N-(2-hydroxy-2-methylpropyl)-4-[(6-{4-[(2,2,2-trifluoroethyl)carbamoyl]phenyl}[1,2,4]triazolo [1,5-a]pyridin-2-yl)amino]benzamide], the IC50 was ≤ 1 nM.
`CCOc1cc(C(=O)N(C)CCO)ccc1Nc1nc2ccc(-c3ccc(C(=O)NCC(F)(F)F)cc3)cn2n1` [Example 11.033, 3-ethoxy-N-(2-hydroxyethyl)-N-methyl-4-[(6-{4-[(2,2,2-trifluoroethyl)carbamoyl]phenyl}[1,2,4]triazolo [1,5-a]pyridin-2-yl)amino]benzamide] was tested, and the IC50 was ≤ 1 nM.
`COc1cc(C(=O)NCCS(C)(=O)=O)ccc1Nc1nc2ccc(-c3cccc(C(=O)NCC(F)(F)F)c3)cn2n1` [Example 11.080, 3-methoxy-N-[2-(methylsulfonyl)ethyl]-4-[(6-{3-[(2,2,2-trifluoroethyl)carbamoyl]phenyl}[1,2,4]triazolo [1,5-a]pyridin-2-yl)amino]benzamide] was tested, and the IC50 was ≤ 1 nM.
Work on `Cc1cc(-c2ccc3nc(Nc4ccccc4OC(F)(F)F)nn3c2)cc(C)c1O` [Example 1.10, 2,6-dimethyl-4-(2-{[2-(trifluoromethoxy)phenyl]amino}[1,2,4]tri-azolo[1,5-a]pyridin-6-yl)phenol] yielded an IC50 of 140 nM.
`CCOCCNC(=O)c1ccc(Nc2nc3ccc(-c4ccc(C(=O)NCC(F)(F)F)cc4)cn3n2)c(OC)c1` [Example 11.015, N-(2-ethoxyethyl)-3-methoxy-4-[(6-{4-[(2,2,2-trifluoroethyl)carbamoyl]phenyl}[1,2,4]triazolo [1,5-a]pyridin-2-yl)amino]benzamide] gave an IC50 of 1.64 nM.
Work on `COc1cc(C(=O)NC(C)(C)C)ccc1Nc1nc2ccc(-c3ccc(C(=O)NCC(F)(F)F)cc3)cn2n1` [Example 11.005, N-tert-butyl-3-methoxy-4-[(6-{4-[(2,2,2-trifluoroethyl)carbamoyl]phenyl}[1,2,4]triazolo[1,5-a]pyridin-2-yl)amino]benzamide] yielded an IC50 of 1.01 nM.
